Measured values reported in patent publication EP0934932A1 (MEIJI SEIKA KABUSHIKI KAISHA, priority 1996, dated 1998).

Target: T1, human dopamine D4 receptor (Homo sapiens, UniProt P21917)
T1 construct: expressed in transfected cells
T1 sequence (P21917 1-419): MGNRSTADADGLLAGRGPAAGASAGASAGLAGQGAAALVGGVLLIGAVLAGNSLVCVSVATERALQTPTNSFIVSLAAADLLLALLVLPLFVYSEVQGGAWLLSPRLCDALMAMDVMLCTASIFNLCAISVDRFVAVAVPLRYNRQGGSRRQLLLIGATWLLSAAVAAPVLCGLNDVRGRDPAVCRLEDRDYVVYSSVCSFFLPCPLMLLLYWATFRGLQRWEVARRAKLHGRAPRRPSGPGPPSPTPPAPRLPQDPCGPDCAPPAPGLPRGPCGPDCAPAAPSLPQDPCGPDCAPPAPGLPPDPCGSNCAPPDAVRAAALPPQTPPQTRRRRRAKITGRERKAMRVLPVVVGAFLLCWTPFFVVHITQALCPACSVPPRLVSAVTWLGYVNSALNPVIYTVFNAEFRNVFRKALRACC
Experiment: Binding affinity for dopamine D4 receptor ([3H]-spiperone displacement, membrane fraction)
Conditions: cloned human dopamine D4 receptor; [3H]-spiperone 0.2nM; 37°C for 30 min; Ki from IC50 by the equation of Cheng and Prusoff
Method: Cells that express cloned human dopamine D4 receptor were harvested in an assay buffer (50mM Tris-HCl, pH7.4, containg 120 mM NaCl, 5 mM KCl, 1mM MgCl2, and 1 mM CaCl2) and homogenized in a potter type homogenizer. The membrane fraction was centrifuged at 39000 g for 20 min at 4°C. The pellet was suspended in 1 ml of the assay buffer per cells from dish having a diameter of 10 cm and was again homogenated. The aliquots (100µl) was added to the buffer containing [^3H]-spiperone of a final concentration of 0.2nM and a test compound to the final assay volume of 300µl, which was then incubated at 37°C for 30 min. The incubation was stopped by rapid filtration on a GF/B filter. Washing with 5 ml of ice-cold 50 mM Tris-HCl (pH 7.4) was then carried out. The radioactivity was measured with a packered liquid scintillation counter. The amount of nonspecific binding was determined in the presence of 1 µM spiperone, and the amount of the specific binding was then determined by subtracting the amount of the nonspecific binding from the total binding. For each compound, IC50 was determined by a regression analysis using a nonlinear least square method. The Ki value was then calculated by the equation of Cheng and Prusoff.

Structure (SMILES) | Ki [nM]
O=c1ccc2ccccc2n1CCCN1CCN(CC2CCCCC2)CC1 [Example 1, 1-[3-(4-Cyclohexanemethyl-1-piperazinyl)-propyl]-2(1H)-quinolinone] | 7.6
O=c1ccc2ccccc2n1CCCN1CCC(Oc2ccc(Cl)cc2)CC1 [Example 20, 1-[3-[4-(4-Chlorophenoxy)-1-piperidinyl]-propyl]-2(1H)-quinolinone] | 2
O=C1COc2ccccc2N1CCCC1CCN(Cc2ccc(F)cc2)CC1 [Example 27, 1-[3-[1-(4-Fluorobenzyl)-4-piperidinyl]-propyl]-4H-benzo[1,4]oxazin-3-one] | 29
O=C1CCc2ccccc2N1CCCC1CCN(Cc2ccc(F)c(F)c2)CC1 [Example 30, 1-[3-[1-(3,4-Difuorobenzyl)-4-piperidinyl]-propyl]-3,4-dihydro-2 (1H)-quinolinone] | 5.7
O=C1CSc2ccccc2N1CCCC1CCN(Cc2ccc(F)cc2)CC1 [Example 32] | 7.6
O=C1CSc2ccccc2N1CCCC1CCN(Cc2ccc(Cl)cc2)CC1 [Example 33] | 1
O=C1CCc2ccccc2N1CCCC1CCN(Cc2ccc(Cl)cc2)CC1 [Example 41, 1-[3-[1-(4-Chlorobenzyl)-4-piperidinyl]-propyl]-3,4-dihydro-2 (1H)-quinolinone] | 1.1
Cc1cccc(CN2CCC(CCCN3C(=O)CCc4ccccc43)CC2)c1 [Example 54, 1-[3-[1-(3-Methylbenzyl)-4-piperidinyl]-propyl]-3,4-dihydro-2(1H)-quinolinone] | 7.5
Cc1ccc(CN2CCC(CCCN3C(=O)CCc4ccccc43)CC2)cc1 [Example 55, 1-[3-[1-(4-Methylbenzyl)-4-piperidinyl]-propyl]-3,4-dihydro-2 (1H)-quinolinone] | 1

Second part, the compound after the results:

Ki [nM] | Structure (SMILES)
18 | O=c1ccc2ccccc2n1CCCN1CCN(Cc2ccc(F)c(F)c2)CC1 [Example 3, 1-[3-[4-(3,4-Difluorobenzyl)-1-piperazinyl]-propyl]-2(1H)-quinolinone]
34 | O=C1CCc2ccccc2N1CCN1CCN(CC2CCCCC2)CC1 [Example 10 (A), 1-[2-(4-Cyclohexanemethyl-1-piperazinyl)-ethyl]-3,4-dihydro-2(1H)-quinolinone]
6 | O=c1ccc2ccccc2n1CCCC1CCN(Cc2ccc(F)c(F)c2)CC1 [Example 24, 1-[3-[1-(3,4-Difluorobenzyl)-4-piperidinyl]-propyl]-2 (1H)-quinolinone]
5.1 | O=C1COc2ccccc2N1CCCC1CCN(Cc2ccc(Cl)cc2)CC1 [Example 29, 1-[3-[1-(4-Chlorobenzyl)-4-piperidinyl]-propyl]-4H-benzo[1,4]oxazin-3-one]
5.9 | O=C1CCc2ccccc2N1CCCC1CCN(Cc2ccc(F)cc2F)CC1 [Example 39, 1-[3-[1-(2,4-Difluorobenzyl)-4-piperidinyl]propyl]-3,4-dihydro-2(1H)-quinolinone]
2.8 | Cc1ccccc1CN1CCC(CCCN2C(=O)CCc3ccccc32)CC1 [Example 44, 1-[3-[1-(2-Methylbenzyl)-4-piperidinyl]-propyl]-3,4-dihydro-2(1H)-quinolinone]
